Assay results: patent US9089565B2, “Compositions and methods for causing neurite outgrowth” (MEDICAL RESEARCH COUNCIL, priority 2009, dated 2015)

Biological target: T1, NgR1 (Homo sapiens, UniProt Q9BZR6)
T1 construct: The cDNAs of NgR1 (NM 023004, Nt. 184-1543); expressed in transfected cells; host or cells: COS7
T1 sequence (Q9BZR6 27-447): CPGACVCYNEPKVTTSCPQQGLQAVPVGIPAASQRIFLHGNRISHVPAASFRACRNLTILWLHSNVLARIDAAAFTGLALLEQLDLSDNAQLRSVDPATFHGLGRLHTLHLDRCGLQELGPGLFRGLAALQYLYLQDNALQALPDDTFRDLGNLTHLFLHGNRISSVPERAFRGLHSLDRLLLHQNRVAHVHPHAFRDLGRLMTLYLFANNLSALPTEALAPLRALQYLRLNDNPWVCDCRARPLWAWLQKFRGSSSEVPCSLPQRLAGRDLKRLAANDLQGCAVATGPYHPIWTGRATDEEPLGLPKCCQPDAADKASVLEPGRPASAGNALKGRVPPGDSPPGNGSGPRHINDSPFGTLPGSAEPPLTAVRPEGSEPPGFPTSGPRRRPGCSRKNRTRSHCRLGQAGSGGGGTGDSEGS
Assay: Binding of Nogo-66 fragment (Nogo-GFP) to COS7 cells over-expressing NgR1
Settings: wild type NgR1
Description: FIG. 3. CK2 phosphorylates NgR1, and inhibits binding of the myelin-associated proteins to NgR1. (A) Myc-tagged wild type, 281S/A or 281S/D mutant NgR1 were over-expressed in COS7 cells. The over-expressed cells were incubated with either the combination of ATP and CK2, or NEP1-40 for 30 min at 37° C. After washing with PBS, cells were incubated with Hisx6-tagged Nogo-GFP for 3 hours at 4° C. The cells were fixed and immunofluorescence was performed with anti-Myc and anti-GFP antibodies. (B) COS7 cells over-expressing Myc-tagged wild type NgR1 were treated as described in (A). Proteins were extracted and the Myc-tagged NgR1 was immunoprecipitated with anti-Myc antibody. Co-precipitated Hisx6-tagged Nogo-GFP was detected by anti-GFP antibody. (C) Cell surface proteins in NgR1-overexpressing COS7 cells were labelled with biotin. The biotinylated proteins were fractionated and analysed by SDS-PAGE. Biotinylated NgR1-Myc was detected with anti-Myc. antibody. (D) COS7 cells over-expressing either wild type NgR1-Myc or 281S/A mutant NgR1-Myc were incubated with ã-^32P-ATP in the presence or absence of CK2. Myc-tagged proteins were immunoprecipitated and analysed with SDS-PAGE. Proteins were blotted onto a PVDF membrane and the membrane was exposed to X-ray film to detect incorporated ^32P. After autoradiography, the membrane was used for immunoblotting with anti-Myc antibody. (E and F) COS7 cells over-expressing Myc-tagged wild type, 281S/A or 281S/D mutant NgR1, were treated as described in (A). After washing with PBS, cells were incubated with either His-tagged OMgp (E) or HA-tagged MAG (F) for 3 hours at 4° C. […]
After treatment with or without CK2, COS7 cells over-expressing wild type or mutant NgR were incubated with Hisx6 tagged Nogo-GFP (10 μg/ml), HA-MAG (50 μg/ml) or Hisx6 tagged OMgp (10 μg/ml) in PBS for 3 hours at 4° C. […] Biotinylated proteins were precipitated with streptavidin beads and were analysed by SDS-PAGE. Each sample fractionated from 5×10^6 cells was analysed by SDS-PAGE. […]

interaction of Nogo-66 fragment with over-expressed NgR1, immunoprecipitation (ATP or CK2 alone)	binding of the Nogo-66 fragment, immunofluorescence (pre-treatment 30 min (CK2 with ATP, or NEP1-40))	Molecule
failed to inhibit the interaction	–	Nc1ncnc2c1ncn2[C@@H]1O[C@H](COP(=O)(O)OP(=O)(O)OP(=O)(O)O)[C@@H](O)[C@H]1O [ATP]
–	inhibited binding	NEP1-40: a competitive inhibitor of Nogo-66 binding to NgR1 (MEDLDQSPLVSSSDSPPRPQPAFKYQFVREPEDEEEEEEE; Nogo-66 residues 1-40; UniProt Q9NQC3 1-40, looked up, fragment) [reference compound]
